Assay results reported in US20260305608A1, “MIXTURE COMBINATIONS FOR CROP PROTECTION” (ADAMA MAKHTESHIM LTD., priority 2023, published 2026).

Columns and labels:
B. tabaci = experiment: Synergistic activity against B. tabaci, 3 days after nymph exposition (% control; Colby); type: in vivo, Bemisia tabaci
Method: (§1) A mixture combination were prepared by thoroughly mixing Tau-fluvalinate (weight %) with a crop protection chemical compound such as Flupyrimin, Isocycloseram, Methoxyfenozide and Garlic extract (weight %).
(§2) Different concentrations of each of the active ingredients may be applied to different species of insects. The percent controls are determined sometime after treatment.
(§3) A synergistic effect exists whenever the action of a combination of active ingredients is greater than the sum of the action of each of the ingredients alone. Therefore, a synergistic combination is a combination of active ingredients having an action that is greater than the sum of the action of each active ingredient alone, and a synergistically effective amount is an effective amount of a synergistic combination.
(§4) Colby's method is used to determine if synergy exists for a combination of active ingredients. According to Colby, the expected action (E) of active ingredients A+B is:
(§5) E=A+B−(AB/100) • where E=expected efficacy, A and B=the efficacy of two active ingredients A and B at a given dose.
(§6) When the percentage of control observed (O) for the combination is greater than the expected (E) percentage, there is a synergistic effect. The synergism ratio (R) is calculated as the ratio between the […].
(§7) The insecticidal compounds A (Tau fluvalinate) and B (mix partner) are formulated as equivalent compositions to eliminate the effects of differing formulation inerts on biological activity. Efficacy of the insecticidal compositions is evaluated with reference to a scale of 0% to 100% in comparison with untreated control plots. 0 means no damage and 100 means complete destruction of the harmful pests.
(§8) The experiments were conducted by applying either by synthesis/extraction or commercially available formulations of Tau fluvalinate and other mixture partners, alone or with their tank-mixed compositions with the same weight ratio. The compositions were diluted with water or some other suitable solvents to the stated concentration of the active compounds.
(§9) Each formulation with active ingredient is diluted with water or other suitable solvent(s) to the ppm (parts per million) level and biological efficacy trials on pests are conducted.

S. littoralis [1] = experiment: Synergistic activity against S. littoralis, 3 days after larvae exposition (% control; Colby); type: in vivo, Spodoptera littoralis
Method: as §1, §2, §3, §4, §5, §6, §7, §8, §9

S. littoralis [2] = experiment: Synergistic activity against S. littoralis, 2 days after larvae exposition (% control; Colby); type: in vivo, Spodoptera littoralis
Method: as §1, §2, §3, §4, §5, §6, §7, §8, §9

| SMILES | Observed % control (O) (B. tabaci; Table 4A, 0.2 ppm) [%] | Observed % control (O) (S. littoralis [1]; Table 3, 2 ppm) [%] | Observed % control (O) (S. littoralis [2]; Table 1B, 10 ppm) [%] | Observed % control (O) (S. littoralis [2]; Table 4B, 8 ppm) [%] | further results |
| --- | --- | --- | --- | --- | --- |
| CC(C)C(Nc1ccc(C(F)(F)F)cc1Cl)C(=O)OC(C#N)c1cccc(Oc2ccccc2)c1 (mixture of isomers) [Tau- Fluvalinate, (RS)-α-Cyano-3-phenoxybenzyl N-(2-chloro-α,α,α-trifluoro-p-tolyl)-D-valinate] | 10.4 | 22.5 | 43 | 45 | Observed % control (O) (B. tabaci; Table 1A, 0.1 ppm): 14%; Observed % control (O) (B. tabaci; Table 2, 20 ppm): 28.1%; Observed % control (O) (S. littoralis [1]; Table 3, 0.2 ppm): 2.5%; Observed % control (O) (S. littoralis [1]; Table 3, 10 ppm): 67.5%; Observed % control (O) (S. littoralis [2]; Table 4B, 16 ppm): 62.5% |
| O=C(/N=c1\ccccn1Cc1ccc(Cl)nc1)C(F)(F)F [Flupyrimin] | – | – | 0 | – | Observed % control (O) (S. littoralis [2]; Table 1B, 1 ppm): 0%; Observed % control (O) (S. littoralis [2]; Table 1B, 100 ppm): 18% |
| CCN1OC[C@@H](NC(=O)c2ccc(C3=NO[C@@](c4cc(Cl)c(F)c(Cl)c4)(C(F)(F)F)C3)cc2C)C1=O [Isocycloseram] | 25.5 | – | – | 12.2 | – |
| COc1cccc(C(=O)NN(C(=O)c2cc(C)cc(C)c2)C(C)(C)C)c1C [Methoxyfenozide] | – | 70 | – | – | Observed % control (O) (S. littoralis [1]; Table 3, 1 ppm): 52.5% |
